These results are taken from publication PMC4011036, “Higher Desolvation Energy Reduces Molecular Recognition in Multi-Drug Resistant HIV-1 Protease” (Biology, 2012).

Structures are written as SMILES.

The target of test [1] is T1, HIV-1 protease NL4-3 (Human immunodeficiency virus type 1 group M subtype B, UniProt P12497, Q495K).
T1 construct: made in house; host or cells: E. coli (pET21b)
Description: HIV-1 protease inhibition (FRET substrate cleavage), NL4-3 (WT). Particulars: FRET substrate I, 0.1 M sodium acetate, 1.0 M NaCl, 1.0 mM EDTA, 1.0 mM DTT, 10% DMSO, 1 mg/mL BSA, pH 4.7, fluorescence 340/490 nm, read-out: IC50 of HIV-1 protease inhibitors. It counts as biochemical.
Description: (§1) The HIV-1 protease reaction buffer was 0.1 M sodium acetate, 1.0 M sodium chloride, 1.0 mM ethylenediaminetetraacetic acid (EDTA), 1.0 mM DTT, 10% dimethylsulfoxide (DMSO), and 1 mg/mL bovine serum albumin (BSA) at pH 4.7. The protease concentration was adjusted to a substrate cleavage velocity of 5 Relative Fluorescence Units (RFU)/min in the absence of regular substrate. […] Upon the addition of the HIV-1 protease, the fluorescent signal emitted through the cleavage of the FRET substrate was recorded using SpectraMax M5 (Molecular Devices, Sunnyvale, CA, USA) at an excitation wavelength of 340 nm and an emission wavelength of 490 nm. The average velocity of FRET substrate cleavage in RFU/min was calculated based on fluorescent signal at 30 time point over 30 min.

Test [2] concerns the target T2, HIV-1 protease MDR 769 (Human immunodeficiency virus type 1 group M subtype B, UniProt P12497, A559V/I542V/I550V/I572V/L498I/L551P/L578M/M524V/M534L/Q495K/V570A).
T2 construct: made in house; host or cells: E. coli (pET21b)
Description: HIV-1 protease inhibition (FRET substrate cleavage), MDR 769. It counts as biochemical. The settings on record: FRET substrate I, 0.1 M sodium acetate, 1.0 M NaCl, 1.0 mM EDTA, 1.0 mM DTT, 10% DMSO, 1 mg/mL BSA, pH 4.7, fluorescence 340/490 nm, read-out: IC50 of HIV-1 protease inhibitors.
Description: as §1

The target in test [3] is T3, HIV-1 protease MDR 807 (Human immunodeficiency virus type 1 group M subtype B, UniProt P12497, A559V/G536V/I542T/I550V/I581L/L498I/L551Q/M534I/Q495K/Q549N/R529K/T562A/V565I/V570A).
T3 construct: made in house; host or cells: E. coli (pET21b)
Description: HIV-1 protease inhibition (FRET substrate cleavage), MDR 807. It counts as biochemical. The settings on record: FRET substrate I, 0.1 M sodium acetate, 1.0 M NaCl, 1.0 mM EDTA, 1.0 mM DTT, 10% DMSO, 1 mg/mL BSA, pH 4.7, fluorescence 340/490 nm, read-out: IC50 of HIV-1 protease inhibitors.
Description: as §1

Test [4] addresses T4, HIV-1 protease MDR 1385 (Human immunodeficiency virus type 1 group M subtype B, UniProt P12497, A559V/I581L/L498F/L551P/L577M/L578M/M524I/M534I/N525D/Q495K/R545K/V570T).
T4 construct: made in house; host or cells: E. coli (pET21b)
Description: HIV-1 protease inhibition (FRET substrate cleavage), MDR 1385. In kind it is biochemical. Particulars: FRET substrate I, 0.1 M sodium acetate, 1.0 M NaCl, 1.0 mM EDTA, 1.0 mM DTT, 10% DMSO, 1 mg/mL BSA, pH 4.7, fluorescence 340/490 nm, read-out: IC50 of HIV-1 protease inhibitors.
Description: as §1

In test [5] the target is T5, HIV-1 protease MDR 3761 (Human immunodeficiency virus type 1 group M subtype B, UniProt P12497, A559I/G561T/I503V/I552V/I572V/I581L/K508I/L498I/L507I/L551P/L578M/M534I/P567S/Q495K/T500A).
T5 construct: made in house; host or cells: E. coli (pET21b)
Description: HIV-1 protease inhibition (FRET substrate cleavage), MDR 3761. Particulars: FRET substrate I, 0.1 M sodium acetate, 1.0 M NaCl, 1.0 mM EDTA, 1.0 mM DTT, 10% DMSO, 1 mg/mL BSA, pH 4.7, fluorescence 340/490 nm, read-out: IC50 of HIV-1 protease inhibitors. In kind it is biochemical.
Description: as §1

Test [6] relates to four MDR protease variants. Particulars: four clinical MDR isolates, enzyme inhibition assays, relative to NL4-3 (WT). An excerpt:
HIV protease Forster Resonance Energy Transfer (FRET) substrate I used in the IC50 determination and substrate interference was purchased from AnaSpec, Inc. (Fremont, CA, USA). The US FDA-approved HIV-1 protease inhibitors were kindly provided by the NIH AIDS Research and Reference Reagent Program (www.aidsreagent.org). The CA/p2 pseudopeptide with a reduced scissile peptide bond [-ψ(CH2NH)-] was synthesized in the Department of Chemistry, Wayne State University. The nine substrate hepta-peptides were purchase from SynBioSci Corporation, Livermore, CA, USA. […] The IC50 determination was described previously. […] The protease concentration was adjusted to a substrate cleavage velocity of 5 Relative Fluorescence Units (RFU)/min in the absence of regular substrate. […] Upon the addition of the HIV-1 protease, the fluorescent signal emitted through the cleavage of the FRET substrate was recorded using SpectraMax M5 (Molecular Devices, Sunnyvale, CA, USA) at an excitation wavelength of 340 nm and an emission wavelength of 490 nm. The average velocity of FRET substrate cleavage in RFU/min was calculated based on fluorescent signal at 30 time point over 30 min. In the control experiment, the average velocity of FRET substrate cleavage was determined in the absence of regular substrates. […]

For the compound `CC(C)CN(C[C@@H](O)[C@H](Cc1ccccc1)NC(=O)O[C@H]1CCOC1)S(=O)(=O)c1ccc(N)cc1` [APV, amprenavir], the IC50 worked out at 0.43 nM in test [1]; 4.8 nM in test [2]; 2.9 nM in test [3]; 3.1 nM in test [4]; 4.1 nM in test [5].
Taken in the same sequence, the figures for `COC(=O)N[C@H](C(=O)N[C@@H](Cc1ccccc1)[C@@H](O)CN(Cc1ccc(-c2ccccn2)cc1)NC(=O)[C@@H](NC(=O)OC)C(C)(C)C)C(C)(C)C` [ATV, atazanavir] were 0.19 nM, 2.9 nM, 7.6 nM, 4.6 nM and 2.2 nM.
For the compound `Cc1cccc(C)c1OCC(=O)N[C@@H](Cc1ccccc1)[C@@H](O)C[C@H](Cc1ccccc1)NC(=O)[C@H](C(C)C)N1CCCNC1=O` [LPV, lopinavir], in test [6], the “resistance of MDR variants to inhibitors (in words)” value was “lower relative resistance”.
Turning to `Cc1c(O)cccc1C(=O)N[C@@H](CSc1ccccc1)[C@H](O)CN1C[C@H]2CCCC[C@H]2C[C@H]1C(=O)NC(C)(C)C` [NFV, nelfinavir], the IC50 in test [1] turned out to be 1.6 nM; in test [2], 110 nM; in test [3], 210 nM; in test [4], 230 nM; in test [5] it was 430 nM.
The corresponding values for `CCC[C@@]1(CCc2ccccc2)CC(O)=C([C@H](CC)c2cccc(NS(=O)(=O)c3ccc(C(F)(F)F)cn3)c2)C(=O)O1` [TPV, tipranavir] are 0.24 nM, 0.65 nM, 0.63 nM, 2.8 nM and 0.63 nM.
